From US20220273759A1, “PHARMACEUTICAL ASSOCIATION FOR CONVERTING A NEOPLASTIC CELL INTO A NON-NEOPLASTIC CELL AND USES THEREOF” (HISTIDE AG, priority 2015, published 2022)

Experiments:
Assay type in all cases: cell-based
Conditions in all cases: Table 6, peptide in association with PET
[1] = tested on: human rhabdosarcoma cells; assay: Recoding via quantification of pRB and P53, rhabdosarcoma cells
Protocol: (§1) The cells were first fixed for 20 min with 4% paraformaldehyde/PBS at 4° C. After fixation, the cells were permeabilized in PBS containing 1% Triton X-100 for 15 min. Protein immunofluorescent visualization was performed by first treating the cells with 1% (v/v) specific monoclonal antibodies for 1 hour at 37° C. Then the samples were incubated with Alexa Fluor® 568 or 647 (F(ab′)2 fragment of IgG(H+L)) during 30 min at room temperature. The cell nuclei were counterstained in 20 ng/mL DAPI for 10 min at room temperature.
(§2) For this type of quantification the freeware image analysis ImageJ® software was used. The raw image was first converted to an 8-bit file, and then the unsharp mask feature was used (settings 1:0.2) to remove the image background (rolling ball radius 10). After smoothing, the resulting image, which appears similar to the original photomicrograph but with minimal background, was then converted to a binary image by setting a threshold. Threshold values were determined empirically by selecting a setting, which gave the most accurate binary image for a subset of randomly selected photomicrographs. The cell area was determined by manual delineation on raw fluorescent images. Total contact area and mean contact area per cell were calculated by “analyse particules” in ImageJ®. A minimum of 50 cells per condition were analyzed. […]

[2] = tested on: mesenchymal chondrosarcoma cells; assay: Recoding via quantification of pRB and P53, chondrosarcoma cells
Protocol: as §1, §2

[3] = tested on: human adenocarcinoma cells; assay: Recoding via quantification of pRB and P53, adenocarcinoma cells
Protocol: as §1, §2

**Q.** With “AASKASSSRVELRSVKIAKV (Non-cyclic GFR-binding peptide) [SEQ ID NO: 210]” as the sequence, how does the “P53 (%)” value [1] read?
**A.** 42%

**Q.** And the “pRB (%)” value [1]?
**A.** 22%

**Q.** For “AASKASSTPTDLNAISTLYF (Non-cyclic GFR-binding peptide) [SEQ ID NO: 216]”, which “P53 (%)” value [1] is on record?
**A.** 27%

**Q.** What about the “pRB (%)” value [1] of the same sequence?
**A.** 19%

**Q.** “GIPEPSSAPTRLEPISMLYL (Non-cyclic GFR-binding peptide) [SEQ ID NO: 222]” was tested. Which “P53 (%)” value [2] did it give?
**A.** 36%

**Q.** What about the “pRB (%)” value [2] of the same sequence?
**A.** 8%

**Q.** With “GIPEPSSAPVGQEPLPMVYY (Non-cyclic GFR-binding peptide) [SEQ ID NO: 230]” as the sequence, how does the “P53 (%)” value [3] read?
**A.** 30%

**Q.** What about the “pRB (%)” value [3] of the same sequence?
**A.** 19%

**Q.** How did the “P53 (%)” value [1] turn out when “GIPEPSSVSQEESSLSTLFF (Non-cyclic GFR-binding peptide) [SEQ ID NO: 214]” was run?
**A.** 31%

**Q.** What about the “pRB (%)” value [1] of the same sequence?
**A.** 18%

**Q.** “GIPEPSSVSQELSATSMLYY (Non-cyclic GFR-binding peptide) [SEQ ID NO: 218]” was tested. Which “P53 (%)” value [2] did it give?
**A.** 28%

**Q.** What about the “pRB (%)” value [2] of the same sequence?
**A.** 17%

**Q.** How did the “P53 (%)” value [1] turn out when “KIPKASSSRVRLSSLSTLFF (Non-cyclic GFR-binding peptide) [SEQ ID NO: 215]” was run?
**A.** 30%

**Q.** And the “pRB (%)” value [1]?
**A.** 19%

**Q.** Which results are given for “KIPKASSTPTRLSPISMLFI (Non-cyclic GFR-binding peptide) [SEQ ID NO: 221]”?
**A.** P53 (%) [2]: 37%; pRB (%) [2]: 21%

**Q.** For “KIPKASSTQVGQSATSILYY (Non-cyclic GFR-binding peptide) [SEQ ID NO: 219]”, which “P53 (%)” value [2] is on record?
**A.** 31%

**Q.** And the “pRB (%)” value [2]?
**A.** 14%

**Q.** How did the “P53 (%)” value [1] turn out when “KIPKASSTQVRLRPVQIRKI (Non-cyclic GFR-binding peptide) [SEQ ID NO: 211]” was run?
**A.** 42%

**Q.** And the “pRB (%)” value [1]?
**A.** 19%

**Q.** Which “P53 (%)” value [3] does the source give for “KIPKASSTQVRLRSVKTAKV (Non-cyclic GFR-binding peptide) [SEQ ID NO: 236]” here?
**A.** 37%

**Q.** What about the “pRB (%)” value [3] of the same sequence?
**A.** 25%

**Q.** For “KIPKASSVPAQLEPLPIVYY (Non-cyclic GFR-binding peptide) [SEQ ID NO: 229]”, which “P53 (%)” value [3] is on record?
**A.** 31%

**Q.** And the “pRB (%)” value [3]?
**A.** 23%

**Q.** How did the “P53 (%)” value [3] turn out when “KIPKASSVPTKMKPLSVLYV (Non-cyclic GFR-binding peptide) [SEQ ID NO: 226]” was run?
**A.** 31%

**Q.** And the “pRB (%)” value [3]?
**A.** 16%

**Q.** “KIPKASSVSQQLEPISTLYL (Non-cyclic GFR-binding peptide) [SEQ ID NO: 223]” was tested. Which “P53 (%)” value [2] did it give?
**A.** 29%

**Q.** And the “pRB (%)” value [2]?
**A.** 9%
